The IC50 is the midpoint of a concentration-inhibition curve.

The source of these data is patent US11759455B2, “Substituted 1H-imidazo[4,5-b]pyridin-2(3H)-ones and their use as GLUN2B receptor modulators” (JANSSEN PHARMACEUTICA NV, priority 2016, dated 2023).

The target of the test is T1, human GluN1/GluN2B NMDA receptors (Homo sapiens, UniProt Q13224).
T1 construct: expressed in transfected cells
T1 sequence (Q13224 27-1484, other chains not shown): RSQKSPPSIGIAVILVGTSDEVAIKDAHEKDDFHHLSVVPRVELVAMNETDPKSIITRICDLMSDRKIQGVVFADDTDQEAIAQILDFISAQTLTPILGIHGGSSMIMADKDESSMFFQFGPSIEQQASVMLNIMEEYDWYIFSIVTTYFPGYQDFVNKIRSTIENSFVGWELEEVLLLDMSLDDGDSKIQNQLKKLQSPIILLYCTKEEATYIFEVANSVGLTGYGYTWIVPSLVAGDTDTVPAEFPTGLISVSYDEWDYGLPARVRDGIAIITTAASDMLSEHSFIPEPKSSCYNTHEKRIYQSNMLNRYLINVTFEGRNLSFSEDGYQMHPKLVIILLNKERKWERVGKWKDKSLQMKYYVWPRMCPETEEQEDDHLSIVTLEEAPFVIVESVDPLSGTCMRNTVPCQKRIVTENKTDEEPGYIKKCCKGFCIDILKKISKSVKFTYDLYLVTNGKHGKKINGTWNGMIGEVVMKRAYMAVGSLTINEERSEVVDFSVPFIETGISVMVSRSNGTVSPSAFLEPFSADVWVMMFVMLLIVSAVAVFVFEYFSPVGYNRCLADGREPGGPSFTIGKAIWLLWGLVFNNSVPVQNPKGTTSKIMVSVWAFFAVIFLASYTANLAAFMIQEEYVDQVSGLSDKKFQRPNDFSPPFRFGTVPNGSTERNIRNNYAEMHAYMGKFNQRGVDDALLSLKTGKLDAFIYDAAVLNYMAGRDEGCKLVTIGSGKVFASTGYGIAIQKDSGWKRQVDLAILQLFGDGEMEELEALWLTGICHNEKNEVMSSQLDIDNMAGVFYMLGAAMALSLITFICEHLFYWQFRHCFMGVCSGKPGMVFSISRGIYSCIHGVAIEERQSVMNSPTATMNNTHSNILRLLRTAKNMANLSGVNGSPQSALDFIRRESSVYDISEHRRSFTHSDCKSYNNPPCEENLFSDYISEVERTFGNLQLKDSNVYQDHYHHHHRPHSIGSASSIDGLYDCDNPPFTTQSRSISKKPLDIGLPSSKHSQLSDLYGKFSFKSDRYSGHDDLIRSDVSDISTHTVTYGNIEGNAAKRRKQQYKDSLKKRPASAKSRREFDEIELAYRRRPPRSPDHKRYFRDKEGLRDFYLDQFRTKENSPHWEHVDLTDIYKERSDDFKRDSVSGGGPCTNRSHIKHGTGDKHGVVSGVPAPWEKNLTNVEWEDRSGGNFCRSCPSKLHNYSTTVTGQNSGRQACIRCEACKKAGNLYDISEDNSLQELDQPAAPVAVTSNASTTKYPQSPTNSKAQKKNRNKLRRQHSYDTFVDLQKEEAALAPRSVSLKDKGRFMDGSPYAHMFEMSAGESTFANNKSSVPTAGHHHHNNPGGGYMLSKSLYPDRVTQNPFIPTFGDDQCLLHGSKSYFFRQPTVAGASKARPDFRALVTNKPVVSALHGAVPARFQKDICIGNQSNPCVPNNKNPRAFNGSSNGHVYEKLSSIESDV
The test is described as follows: Cell-based calcium flux (FLIPR) assay on cloned human NR1/NR2B ion channels expressed in mammalian cells (standard and HTS buffer variants).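 Further: stable Tet-On inducible cell line, Ca2+ influx triggered by glutamate at about EC40 plus 10 µM glycine, fluorescent dye read-out over 5 min, normalized to control wells.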 The conditions noted are these: standard assay buffer (0.5 mM MgCl2 in dye loading buffer; 137 mM NaCl, 4 mM KCl in assay buffer), human GluN1/GluN2B, read-out: NR2B IC50 (μM) standard assay. In general terms: Calcium assays in cells follow changes in intracellular calcium, usually with a dye or a luminescent sensor.
As to `Cc1ccc(-c2cnc3c(c2)n(Cc2cn(C)nn2)c(=O)n3C)s1` [Example 553, 3-Methyl-6-(5-methyl-2-thienyl)-1-[(1-methyltriazol-4-yl)methyl]imidazo[4,5-b]pyridin-2-one], the IC50 is 0.726 µM. In the case of `Cc1nnc(Cn2c(=O)n(C)c3ncc(-c4ccc(C)s4)cc32)o1` [Example 554, 3-Methyl-1-[(5-methyl-1,3,4-oxadiazol-2-yl)methyl]-6-(5-methyl-2-thienyl)imidazo[4,5-b]pyridin-2-one] it was 0.533 µM; in that of `Cc1ccc(-c2cnc3c(c2)n(Cc2cnn(C)c2)c(=O)n3C)s1` [Example 555, 3-Methyl-1-[(1-methylpyrazol-4-yl)methyl]-6-(5-methyl-2-thienyl)imidazo[4,5-b]pyridin-2-one], 1.31 µM.

Turning to `Cc1ccc(-c2cnc3c(c2)n(Cc2csnn2)c(=O)n3C)s1` [Example 556, 3-Methyl-6-(5-methyl-2-thienyl)-1-(thiadiazol-4-ylmethyl)imidazo[4,5-b]pyridin-2-one], the IC50 was 0.363 µM.

Regarding `Cc1noc(Cn2c(=O)n(C)c3ncc(-c4ccc(C)s4)cc32)n1` [Example 557, 3-Methyl-1-[(3-methyl-1,2,4-oxadiazol-5-yl)methyl]-6-(5-methyl-2-thienyl)imidazo[4,5-b]pyridin-2-one], the IC50 is 0.671 µM. In the case of `Cc1cc(Cn2c(=O)n(C)c3ncc(-c4ccc(C)s4)cc32)no1` [Example 558, 3-Methyl-1-[(5-methylisoxazol-3-yl)methyl]-6-(5-methyl-2-thienyl)imidazo[4,5-b]pyridin-2-one] it was 0.216 µM; in that of `Cn1cc(Cn2c(=O)n(C)c3ncc(-c4ccc(C(F)F)s4)cc32)nn1` [Example 559, 6-[5-(Difluoromethyl)-2-thienyl]-3-methyl-1-[(1-methyltriazol-4-yl)methyl]imidazo[4,5-b]pyridin-2-one], 0.28 µM.

Consider `Cc1nnc(Cn2c(=O)n(C)c3ncc(-c4ccc(C(F)F)s4)cc32)o1` [Example 560, 6-[5-(Difluoromethyl)-2-thienyl]-3-methyl-1-[(5-methyl-1,3,4-oxadiazol-2-yl)methyl]imidazo[4,5-b]pyridin-2-one], for which the IC50 was determined as 0.304 µM. In the case of `Cn1cc(Cn2c(=O)n(C)c3ncc(-c4ccc(C(F)F)s4)cc32)cn1` [Example 561, 6-[5-(Difluoromethyl)-2-thienyl]-3-methyl-1-[(1-methylpyrazol-4-yl)methyl]imidazo[4,5-b]pyridin-2-one] it was 0.354 µM; in that of `Cn1c(=O)n(Cc2csnn2)c2cc(-c3ccc(C(F)F)s3)cnc21` [Example 562, 6-[5-(Difluoromethyl)-2-thienyl]-3-methyl-1-(thiadiazol-4-ylmethyl)imidazo[4,5-b]pyridin-2-one], 0.166 µM. For `Cc1noc(Cn2c(=O)n(C)c3ncc(-c4ccc(C(F)F)s4)cc32)n1` [Example 563, 6-[5-(Difluoromethyl)-2-thienyl]-3-methyl-1-[(3-methyl-1,2,4-oxadiazol-5-yl)methyl]imidazo[4,5-b]pyridin-2-one], the IC50 came to 0.316 µM. In the case of `Cc1cc(Cn2c(=O)n(C)c3ncc(-c4ccc(C(F)F)s4)cc32)no1` [Example 564, 6-[5-(Difluoromethyl)-2-thienyl]-3-methyl-1-[(5-methylisoxazol-3-yl)methyl]imidazo[4,5-b]pyridin-2-one] it was 0.087 µM; in that of `Cn1cc(Cn2c(=O)n(C)c3ncc(-c4ccc(C(F)(F)F)s4)cc32)cn1` [Example 565, 3-Methyl-1-[(1-methylpyrazol-4-yl)methyl]-6-[5-(trifluoromethyl)-2-thienyl]imidazo[4,5-b]pyridin-2-one], 0.374 µM. Consider `Cn1cc(Cn2c(=O)n(C)c3ncc(-c4ccc(C(F)(F)F)s4)cc32)nn1` [Example 566, 3-Methyl-1-[(1-methyltriazol-4-yl)methyl]-6-[5-(trifluoromethyl)-2-thienyl]imidazo[4,5-b]pyridin-2-one], for which the 50% inhibitory concentration (IC50) is 0.349 µM.
